Measurements from PubChem BioAssay (NCI).
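Following 48 hours of exposure in 96-well plates, responses at five concentrations were used to interpolate endpoints linearly. GI50 marks 50% less growth. The concentration for full growth arrest is given as TGI.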

Assays:
Test in all cases: NCI tumour cell line growth inhibition, 48 h
786-0 renal = system: 786-0 renal
UACC-257 melanoma = system: UACC-257 melanoma
MOLT-4 leukemia = system: MOLT-4 leukemia
MDA-MB-231 breast = system: MDA-MB-231 breast
CCRF-CEM leukemia = system: CCRF-CEM leukemia
OVCAR-5 ovarian = system: OVCAR-5 ovarian
A549 NSCLC = system: A549 NSCLC
COLO 205 colon = system: COLO 205 colon

Structure (SMILES) | GI50 (786-0 renal) | TGI (786-0 renal) | GI50 (UACC-257 melanoma) | TGI (UACC-257 melanoma) | GI50 (MOLT-4 leukemia) | TGI (MOLT-4 leukemia) | GI50 (MDA-MB-231 breast) | TGI (MDA-MB-231 breast) | GI50 (CCRF-CEM leukemia) | TGI (CCRF-CEM leukemia) | GI50 (OVCAR-5 ovarian) | TGI (OVCAR-5 ovarian) | GI50 (A549 NSCLC) | TGI (A549 NSCLC) | GI50 (COLO 205 colon) | TGI (COLO 205 colon)
CN(C)CCOc1ccc(-c2cc(-c3ccc4c(c3)CC/C4=N\O)c(-c3ccncc3)o2)cc1 | 3.55 µM | 7.75 µM | 0.0945 µM | 1.87 µM | 3.86 µM | 10.3 µM | 3.34 µM | 7.19 µM | 3.76 µM | 13.3 µM | 3.32 µM | 6.79 µM | 3.57 µM | 7.06 µM | 0.112 µM | 4.35 µM
CC1(C)CC(=O)c2c(ccc(C(=O)C[C@@H](N)CO)c2N)O1 | 11.9 µM | > 61.4 µM | 3.25 µM | 47.8 µM | 0.349 µM | > 37.4 µM | 3.13 µM | > 100 µM | 0.556 µM | > 60.2 µM | 22.8 µM | > 100 µM | 1.42 µM | > 100 µM | 1.05 µM | > 37.3 µM
C#C/C=C/CC1OC(C(Br)CC)CC(Br)C2CC1O2 (stereo not drawn) |  | 24.8 µM |  | > 100 µM |  | > 100 µM |  | > 100 µM |  | > 100 µM |  | > 100 µM |  | > 100 µM |  | > 100 µM
CNC(=O)c1cc2c(Oc3ccc(NC(=S)NC(=O)Cc4ccccc4)cc3F)ccnc2cc1OC | 5.75 µM | > 100 µM | 9.5 µM | > 100 µM | 3.47 µM | > 100 µM | 3.87 µM | > 100 µM | > 29.9 µM | > 100 µM | > 36.1 µM | > 100 µM | > 48.6 µM | > 100 µM | 5.37 µM | > 100 µM
CN1CCN(c2ccc(C(=O)Nc3cccc(C#Cc4cccc5[nH]nc(N)c45)c3)cc2C(F)(F)F)CC1 | 2.05 µM | 5.04 µM | 1.93 µM | 4.53 µM | 0.645 µM | 1.57 µM | 0.568 µM | 1.35 µM | 1.16 µM | 4.6 µM | 0.959 µM | 3.27 µM | 0.767 µM | 2.02 µM | 0.581 µM | 1.2 µM
CCCCCSC1C2C(=O)C(Br)=CC13CCNc1c(O)c4c5c(c13)=[N+]2CCC=5C=N4 (stereo not drawn) | 2.7 µM | 5.12 µM | 0.385 µM | 1.2 µM | 0.762 µM | 5.73 µM | 0.417 µM | 1.5 µM | 1.01 µM | 11.6 µM | 3.07 µM | 7.08 µM | 2.88 µM | 5.8 µM | 0.303 µM | 0.613 µM
